Values quoted from earlier work as cited in patent US20240287072A1, “SOLID STATE FORMS OF LUMATEPERONE SALTS AND PROCESSES FOR PREPARATION OF LUMATEPERONE AND SALTS THEREOF” (TEVA PHARMACEUTICALS INTERNATIONAL GMBH, priority 2018, published 2024).
Structures can show the parent of a compound that is named as a salt.

Assays:
[1] = hydrochloride salt disclosed in U.S. Pat. No. 7,183,282
[2] = hydrochloride salt disclosed in U.S. Pat. No. 7,183,282; remark: listed apart in the source
[3] = free base form, oily, sticky solid

Row | stability [1] | hygroscopicity [2] | solubility [3] | Compound
1 | poor | hygroscopic |  | CN1CCN2c3c(cccc31)[C@@H]1CN(CCCC(=O)c3ccc(F)cc3)CC[C@@H]12 [hydrochloride salt of lumateperone]
2 |  |  | poor | CN1CCN2c3c(cccc31)[C@@H]1CN(CCCC(=O)c3ccc(F)cc3)CC[C@@H]12 [lumateperone, 1-(4-fluorophenyl)-4-((6bR, 10aS)-3-methyl-2,3,6b,9,10,10a-hexahydro-1H-pyrido[3′,4′:4,5]pyrrolo[1,2,3-de]quinoxalin-8(7H)-yl)butan-1-one]
